Data taken from patent publication US20050209256A1, “Novel beta-turn mimetics as calcitonin gene related peptide receptor antagonists” (priority 2004, published 2005).

target: T1, human CGRP receptor (Homo sapiens, UniProt O60894+Q16602); assay: Radioligand binding assay, [125I]-CGRP competition on SK-N-MC cell homogenates; details: Binding data, [125I]-CGRP 40 pM, room temperature
T1 construct: SK-N-MC cells that endogenously express the human CGRP receptor; endogenous in cells; host or cells: SK-N-MC cells (membrane homogenates)
Protocol: Tissue culture. SK-N-MC cells were grown at 37° C. in 5% CO2 as a monolayer in medium consisting of MEM with Earle's salts and L-glutamine (Gibco) supplemented with 10% fetal bovine serum (Gibco).
Radioligand binding assays. Cells were rinsed twice with phosphate-buffered saline (155 mM NaCl, 3.3 mM Na2HPO4, 1.1 mM KH2PO4, pH 7.4), and incubated for 5-10 min. at 4° C. in hypotonic lysis buffer consisting of 10 mM Tris (pH 7.4) and 5 mM EDTA. Cells were transferred from plates to polypropylene tubes (16×100 mm), homogenized and centrifuged at 32,000×g for 30 min. Pellets were resuspended in buffer consisting of 50 mM Tris (pH 7.4) and 1 mM EDTA, homogenized, and centrifuged again at 32,000×g for 30 min. Pellets were resuspended in 100 mM Tris-Cl pH 7.5, 10 mM MgCl2, 0.1% mammalian protease inhibitor cocktail (Sigma) and stored at −80° C. until needed. On the day of an experiment, homogenates were thawed and homogenized again. Binding of [^125I]-CGRP (NEN) was carried out in buffer containing 50 mM Tris-Cl pH 7.5, 5 mM MgCl2, 0.5% BSA. Homogenates (3.5 μg protein/well) were incubated with competitor compounds (solubilized in 100% DMSO at 100× their final assay concentrations) for one hour at room temperature. Then [^125I]-CGRP was added (40 pM final concentration) and the reaction incubated for one additional hour at room temperature. Assays were stopped by addition of cold wash buffer (20 mM Tris-Cl pH 7.5, 0.1% BSA) immediately followed by filtration over glass fiber filters (Whatman GF/B) previously soaked in 0.5% PEI. Non-specific binding was defined with 100 nM CGRP.

| SMILES | IC50 [µM] |
| --- | --- |
| CC(=O)c1ccc(NC(=O)N2CCC(=O)N3[C@@H](C4CCCCC4)C(=O)N(CCc4ccccc4Cl)C[C@H]23)cc1 [Compound 116, (6S,9aS)-8-[2-(2-Chloro-phenyl)-ethyl]-6-cyclohexyl-4,7-dioxo-hexahydro-pyrazino[1,2-a]pyrimidine-1-carboxylic acid (4-acetyl-phenyl)-amide] | 2.58 |
| CC(=O)c1ccc(NC(=O)N2CCC(=O)N3[C@@H](C4CCCCC4)C(=O)N(CCc4ccc(F)cc4)C[C@H]23)cc1 [Compound 122, (6S,9aS)-6-Cyclohexyl-8-[2-(4-fluoro-phenyl)-ethyl]-4,7-dioxo-hexahydro-pyrazino[1,2-a]pyrimidine-1-carboxylic acid (4-acetyl-phenyl)-amide] | 0.89 |
| CC(=O)c1ccc(NC(=O)N2CCC(=O)N3[C@@H](C4CCCCC4)C(=O)N(CCc4ccncc4)C[C@H]23)cc1 [Compound 132, (6S,9aS)-6-Cyclohexyl-4,7-dioxo-8-(2-pyridin-4-yl-ethyl)-hexahydro-pyrazino[1,2-a]pyrimidine-1-carboxylic acid (4-acetyl-phenyl)-amide] | 8 |
| CC(=O)c1ccc(NC(=O)N2CCC(=O)N3[C@@H](C4CCCCC4)C(=O)N(CCc4cccc(Cl)c4)C[C@H]23)cc1 [Compound 135, (6S,9aS)-8-[2-(3-Chloro-phenyl)-ethyl]-6-cyclohexyl-4,7-dioxo-hexahydro-pyrazino[1,2-a]pyrimidine-1-carboxylic acid (4-acetyl-phenyl)-amide] | 7.07 |
| CC(=O)c1ccc(NC(=O)N2CCC(=O)N3[C@@H](C4CCCCC4)C(=O)N(CCc4cccs4)C[C@H]23)cc1 [Compound 138, (6S,9aS)-6-Cyclohexyl-4,7-dioxo-8-(2-thiophen-2-yl-ethyl)-hexahydro-pyrazino[1,2-a]pyrimidine-1-carboxylic acid (4-acetyl-phenyl)-amide] | 0.087 |
| CC(=O)c1ccc(NC(=O)N2CCC(=O)N3[C@@H](C4CCCCC4)C(=O)N(CCc4cccnc4)C[C@H]23)cc1 [Compound 140, (6S,9aS)-6-Cyclohexyl-4,7-dioxo-8-(2-pyridin-3-yl-ethyl)-hexahydro-pyrazino[1,2-a]pyrimidine-1-carboxylic acid (4-acetyl-phenyl)-amide] | 2.44 |
| CC(=O)c1ccc(OC(=O)N2CCC(=O)N3[C@@H]2CN(CCc2ccccc2)C(=O)[C@@H]3CC2CCCCC2)c(C)c1 [Compound 144, (6S,9aS)-6-Cyclohexylmethyl-4,7-dioxo-8-phenethyl-hexahydro-pyrazino[1,2-a]pyrimidine-1-carboxylic acid 4-acetyl-2-methyl-phenyl ester] | 7.4 |
| CC(O)c1ccc(NC(=O)N2CCC(=O)N3[C@@H]2CN(CCc2ccccc2)C(=O)[C@@H]3CC2CCCCC2)cc1 (stereo partly drawn) [Compound 145, (6S,9aS)-6-Cyclohexylmethyl-4,7-dioxo-8-phenethyl-hexahydro-pyrazino[1,2-a]pyrimidine-1-carboxylic acid [4-(1-hydroxy-ethyl)-phenyl]-amide] | 2.73 |
| CC(=O)c1ccc(OC(=O)N2CCC(=O)N3[C@@H]2CN(CCc2ccccc2)C(=O)[C@@H]3CC2CCCCC2)cc1C [Compound 146, (6S,9aS)-6-Cyclohexylmethyl-4,7-dioxo-8-phenethyl-hexahydro-pyrazino[1,2-a]pyrimidine-1-carboxylic acid 4-acetyl-3-methyl-phenyl ester] | 0.364 |
| CC(=O)c1ccc(OC(=O)N2CCC(=O)N3[C@@H](C4CCCCC4)C(=O)N(CCc4ccccc4)C[C@H]23)cc1C [Compound 148, (6S,9aS)-6-Cyclohexyl-4,7-dioxo-8-phenethyl-hexahydro-pyrazino[1,2-a]pyrimidine-1-carboxylic acid 4-acetyl-3-methyl-phenyl ester] | 3.9 |
| CC(=O)c1ccc(OC(=O)N2CCC(=O)N3[C@@H](C4CCCCC4)C(=O)N(CCc4ccccc4)C[C@H]23)cc1 [Compound 149, (6S,9aS)-6-Cyclohexyl-4,7-dioxo-8-phenethyl-hexahydro-pyrazino[1,2-a]pyrimidine-1-carboxylic acid 4-acetyl-phenyl ester] | 8.56 |
| O=C1COc2cc(OC(=O)N3CCC(=O)N4[C@@H](C5CCCCC5)C(=O)N(CCc5ccccc5)C[C@H]34)ccc21 [Compound 150, (6S,9aS)-6-Cyclohexyl-4,7-dioxo-8-phenethyl-hexahydro-pyrazino[1,2-a]pyrimidine-1-carboxylic acid 3-oxo-2,3-dihydro-benzofuran-6-yl ester] | 1.73 |
| CC(=O)c1ccc(NC(=O)N2CCC(=O)N3[C@@H](c4ccc(F)c(F)c4)C(=O)N(CCc4cccc(F)c4)C[C@H]23)cc1 [Compound 151, 6-(3,4-Difluoro-phenyl)-8-[2-(3-fluoro-phenyl)-ethyl]-4,7-dioxo-hexahydro-pyrazino [1,2-a]pyrimidine-1-carboxylic acid (4-acetyl-phenyl)-amide] | 0.039 |
| CC(=O)c1ccc(NC(=O)N2CCC(=O)N3[C@@H](c4cccc(F)c4)C(=O)N(CCc4cccc(F)c4)C[C@H]23)cc1 [Compound 152, (6S,9aS)-6-(3-Fluoro-phenyl)-8-[2-(3-fluoro-phenyl)-ethyl]-4,7-dioxo-hexahydro-pyrazino[1,2-a]pyrimidine-1-carboxylic acid (4-acetyl-phenyl)-amide] | 0.159 |
| CC(=O)c1ccc(NC(=O)N2CCC(=O)N3[C@@H](c4ccc(F)cc4F)C(=O)N(CCc4cccc(F)c4)C[C@H]23)cc1 [Compound 153, (6S,9aS)-6-(2,4-Difluoro-phenyl)-8-[2-(3-fluoro-phenyl)-ethyl]-4,7-dioxo-hexahydro-pyrazino[1,2-a]pyrimidine-1-carboxylic acid (4-acetyl-phenyl)-amide] | 0.32 |
| CC(=O)c1ccc(NC(=O)N2CCC(=O)N3[C@@H](c4cccc(F)c4F)C(=O)N(CCc4cccc(F)c4)C[C@H]23)cc1 [Compound 154, (6S,9aS)-6-(2,3-Difluoro-phenyl)-8-[2-(3-fluoro-phenyl)-ethyl]-4,7-dioxo-hexahydro-pyrazino[1,2-a]pyrimidine-1-carboxylic acid (4-acetyl-phenyl)-amide] | 0.363 |
